Assay results published in patent US20230242558A1, “NICOTINATE AND NICOTINAMIDE RIBOSIDE-BASED COMPOUNDS AND DERIVATIVES THEREOF” (New Frontier Bio, Inc., priority 2022, published 2023).

What follows are compounds tested on HaCaT cells (assay: NAD assay in HaCaT cells, total NAD level normalized to protein). Conditions: 4 hours incubation, concentration not given.
Assay type: cell-based
Protocol: The biological activity of certain compounds disclosed herein was determined using the following method: • 1. Plate HaCaT cells in 12-well tissue culture plates at a density of 200,000 cells per well in 0.75 mL DMEM growth medium. Incubate overnight at 37° C. in a incubator at 5% CO2. • 2. Next day, prepare dilutions of each compound in growth medium at the desired final concentration. • 3. Incubate cells as above for 4 hours. • 4. After the incubation, wash cell monolayers in each well with 200 uL PBS and add 200 uL 0.25% Trypsin. Let cells lift for 15 minutes. • 5. Once cells are lifted, collect cells into sterile 1.5 mL Eppendorf tube containing 400 uL of DMEM w/2% HI FBS. • 6. Centrifuge tubes for 500×g for 5 min. • 7. Aspirate supernatant and wash cells with 200 uL of cold PBS. • 8. Centrifuge tubes for 500×g for 5 min. • 9. Aspirate supernatant and add 400 μL of cold extraction buffer (provided in the NAD assay kit) and vortex each tube for 10 seconds. • 10. Centrifuge samples at 13,000×g for 10 min to remove insoluble material. • 11. Use a small aliquot of extract to determine total protein concentration by BCA protein assay kit. • 12. Deproteinize samples by filtering them through a 10 kDa cut-off spin filter. Centrifuge at 13,000×g for 10 min. • 13. After cell lysate is filtered, load 25 uL of samples to 96 well plate for NAD assay. • 14. Add 25 uL of extraction buffer to each well with samples to dilute them 1:2. Add 50 uL of standards to appropriate wells. • 15. Set up master reaction mix of cycling buffer and NAD cycling enzyme mix. Add 100 uL of mix to each well and incubate for […]. • 16. Add 10 uL of developer into each well. • 17. Let plate incubate at room temperature for 1 hr. • 18. Stop the reaction by adding 10 uL of stop solution into each well and mix well. • 19. Measure absorbance at 450 nm using plate reader. • 20. Plot standard curve and normalize data to determine total NAD level.

Row | SMILES | NAD+ level
1 | COC(=O)c1ccc[n+]([C@@H]2O[C@H](COC(C)=O)[C@@H](OC(C)=O)[C@H]2OC(C)=O)c1 | 323 pmol/mg protein
2 | CC(=O)OC[C@H]1O[C@@H]([n+]2cccc(C(=O)Sc3ccccc3)c2)[C@H](OC(C)=O)[C@@H]1OC(C)=O | <1 pmol/mg protein
3 | O=C(Sc1ccccc1)c1ccc[n+]([C@@H]2O[C@H](CO)[C@@H](O)[C@H]2O)c1 | <1 pmol/mg protein
4 | CCOC(=O)c1ccc[n+]([C@@H]2O[C@H](COC(C)=O)[C@@H](OC(C)=O)[C@H]2OC(C)=O)c1 | 674 pmol/mg protein
5 | CC(C)(C)OC(=O)c1ccc[n+]([C@@H]2O[C@H](COP(=O)([O-])O)[C@@H](O)[C@H]2O)c1 | <1 pmol/mg protein
6 | CC(C)(C)OC(=O)c1ccc[n+]([C@@H]2O[C@H](CO)[C@@H](O)[C@H]2O)c1 | 1162 pmol/mg protein
7 | O=C(Oc1ccc(/C=C/c2cc(OC(=O)c3cccnc3)cc(OC(=O)c3cccnc3)c2)cc1)c1cccnc1 | 616 pmol/mg protein
8 | CC1CCC(C(C)C)C(OC(=O)c2cccnc2)C1 (stereo not drawn) | <1 pmol/mg protein
9 | CCC(=O)OC[C@H]1O[C@@H]([n+]2cccc(C(=O)O)c2)[C@H](OC(=O)CC)[C@@H]1OC(=O)CC | 667 pmol/mg protein
10 | CC(C)(C)OC(=O)CCCCCCCCCCCCCCCCC(=O)NCCNC(=O)c1cccnc1 | 460 pmol/mg protein
11 | [2H]c1nc([2H])c(C(=O)NCCCCCC[P+](c2ccccc2)(c2ccccc2)c2ccccc2)c([2H])c1[2H] | 435 pmol/mg protein
12 | O=C(Cc1ccccc1Nc1c(Cl)cccc1Cl)NCCNC(=O)c1cccnc1 | 338 pmol/mg protein
13 | CC(=O)OC[C@H]1O[C@@H]([n+]2cccc(C(=O)OCc3ccccc3)c2)[C@H](OC(C)=O)[C@@H]1OC(C)=O | 426 pmol/mg protein
14 | O=C(O)c1ccc[n+]([C@@H]2O[C@H](COC(=O)c3cccnc3)[C@@H](OC(=O)c3cccnc3)[C@H]2OC(=O)c2cccnc2)c1 | 656 pmol/mg protein
15 | O=C(OCc1ccccc1)c1ccc[n+]([C@@H]2O[C@H](CO)[C@@H](O)[C@H]2O)c1 | 463 pmol/mg protein
16 | CC(=O)OC[C@H]1O[C@@H]([n+]2cccc(C(=O)O)c2)[C@H](OC(C)=O)[C@@H]1OC(C)=O | 311 pmol/mg protein
17 | CC(=O)OC[C@H]1O[C@@H]([n+]2cccc(C(=O)OC(C)(C)C)c2)[C@H](OC(C)=O)[C@@H]1OC(C)=O | <1 pmol/mg protein
18 | O=C(OCCO)c1cccnc1 | 501 pmol/mg protein
19 | NCCNC(=O)c1cccnc1 | 587 pmol/mg protein
20 | O=C(NCCNCCC[P+](c1ccccc1)(c1ccccc1)c1ccccc1)c1cccnc1 | 391 pmol/mg protein
21 | O=C(NCCNCCCCCC[P+](c1ccccc1)(c1ccccc1)c1ccccc1)c1cccnc1 | 378 pmol/mg protein
22 | O=C(Oc1ccc2c(c1)oc(=O)c1cc(O)ccc12)c1cccnc1 | 681 pmol/mg protein
23 | O=C(OCCCCCC[P+](c1ccccc1)(c1ccccc1)c1ccccc1)c1cccnc1 | <1 pmol/mg protein
24 | O=C(OCCOCCC[P+](c1ccccc1)(c1ccccc1)c1ccccc1)c1cccnc1 | <1 pmol/mg protein
25 | O=C(OCCC[P+](c1ccccc1)(c1ccccc1)c1ccccc1)c1cccnc1 | 576 pmol/mg protein
26 | O=C(NC[P+](c1ccccc1)(c1ccccc1)c1ccccc1)c1cccnc1 | 521 pmol/mg protein

Row | SMILES | NAD+ level
27 | O=C(OC[P+](c1ccccc1)(c1ccccc1)c1ccccc1)c1cccnc1 | 319 pmol/mg protein
28 | CC1=C(/C=C/C(C)=C/C=C/C(C)=C/C(=O)NCCNC(=O)c2cccnc2)C(C)(C)CCC1 | 815 pmol/mg protein
29 | CC(=O)OC[C@H]1O[C@@H]([n+]2cccc(C(=O)NCCCCCC[P+](c3ccccc3)(c3ccccc3)c3ccccc3)c2)[C@H](OC(C)=O)[C@@H]1OC(C)=O | 565 pmol/mg protein
30 | CC(=O)OC[C@H]1O[C@@H]([n+]2cccc(C(=O)NCCNC(=O)c3ccc[n+]([C@@H]4O[C@H](COC(C)=O)[C@@H](OC(C)=O)[C@H]4OC(C)=O)c3)c2)[C@H](OC(C)=O)[C@@H]1OC(C)=O | 354 pmol/mg protein
31 | CC(=O)OC[C@H]1O[C@@H]([n+]2cccc(C(=O)NCCNC(=O)CCCCC[P+](c3ccccc3)(c3ccccc3)c3ccccc3)c2)[C@H](OC(C)=O)[C@@H]1OC(C)=O | 311 pmol/mg protein
32 | CC(=O)OC[C@H]1O[C@@H]([n+]2cccc(C(=O)NCCC[P+](c3ccccc3)(c3ccccc3)c3ccccc3)c2)[C@H](OC(C)=O)[C@@H]1OC(C)=O | 292 pmol/mg protein
33 | O=C(NCCCCCC[P+](c1ccccc1)(c1ccccc1)c1ccccc1)c1ccc[n+]([C@@H]2O[C@H](CO)[C@@H](O)[C@H]2O)c1 | 285 pmol/mg protein
34 | CC(C)Cc1ccc(C(C)C(=O)OCCOC(=O)c2cccnc2)cc1 (stereo not drawn) | 539 pmol/mg protein
35 | CCCCCc1cc(OC(=O)c2cccnc2)c2c(c1)OC(C)(CCC=C(C)C)C=C2 (stereo not drawn) | 375 pmol/mg protein
36 | O=C(OCCOCCCCCC[P+](c1ccccc1)(c1ccccc1)c1ccccc1)c1cccnc1 | 230 pmol/mg protein
37 | O=C(CCCCC[P+](c1ccccc1)(c1ccccc1)c1ccccc1)NCCOC(=O)c1cccnc1 | <1 pmol/mg protein
38 | O=C(NCc1ccccc1)c1ccc[n+]([C@@H]2O[C@H](CO)[C@@H](O)[C@H]2O)c1 | 274 pmol/mg protein
39 | O=C(CCCC[P+](c1ccccc1)(c1ccccc1)c1ccccc1)NCCNC(=O)c1cccnc1 | 495 pmol/mg protein
40 | O=C(CCCC[P+](c1ccccc1)(c1ccccc1)c1ccccc1)NCCOC(=O)c1cccnc1 | 508 pmol/mg protein
41 | O=C(OCCOCCCCCCCCC[P+](c1ccccc1)(c1ccccc1)c1ccccc1)c1cccnc1 | <1 pmol/mg protein
42 | O=C(NCCNCCCCCCCCC[P+](c1ccccc1)(c1ccccc1)c1ccccc1)c1cccnc1 | 395 pmol/mg protein
43 | CCCCCCCCCCCCCCNC(=O)c1ccc[n+]([C@@H]2O[C@H](CO)[C@@H](O)[C@H]2O)c1 | <1 pmol/mg protein
44 | CC(=O)OC[C@H]1O[C@@H]([n+]2cccc(C(=O)OCCOC(=O)c3ccc[n+]([C@@H]4O[C@H](COC(C)=O)[C@@H](OC(C)=O)[C@H]4OC(C)=O)c3)c2)[C@H](OC(C)=O)[C@@H]1OC(C)=O | 655 pmol/mg protein
45 | CC(=O)OC[C@H]1O[C@@H]([n+]2cccc(C(=O)OC3CC(C)CCC3C(C)C)c2)[C@H](OC(C)=O)[C@@H]1OC(C)=O (stereo partly drawn) | 258 pmol/mg protein
46 | CC1CCC(C(C)C)C(OC(=O)c2ccc[n+]([C@@H]3O[C@H](CO)[C@@H](O)[C@H]3O)c2)C1 (stereo partly drawn) | 464 pmol/mg protein
47 | CC(=O)Oc1cc(/C=C/c2ccc(OC(=O)c3cccnc3)cc2)cc(OC(C)=O)c1 | 122 pmol/mg protein
48 | O=C(Oc1ccc(/C=C/c2cc(O)cc(O)c2)cc1)c1ccc[n+]([C@@H]2O[C@H](CO)[C@@H](O)[C@H]2O)c1 | 94 pmol/mg protein
49 | CC(=O)OC[C@H]1O[C@@H]([n+]2cccc(C(=O)Oc3ccc(/C=C/c4cc(OC(C)=O)cc(OC(C)=O)c4)cc3)c2)[C@H](OC(C)=O)[C@@H]1OC(C)=O | <1 pmol/mg protein
50 | CC1CCC(C(C)C)C(OC(=O)c2ccc[n+]([C@@H]3O[C@H](COP(=O)([O-])O)[C@@H](O)[C@H]3O)c2)C1 (stereo partly drawn) | 472 pmol/mg protein
51 | O=C(Oc1cc(OC(=O)c2cccnc2)c2c(=O)c(O)c(-c3ccc(OC(=O)c4cccnc4)c(OC(=O)c4cccnc4)c3)oc2c1)c1cccnc1 | 328 pmol/mg protein
